The values that follow come from ChEMBL document CHEMBL1131511, “Potent HIV protease inhibitors incorporating high-affinity P2-ligands and (R)-(hydroxyethylamino)sulfonamide isostere” (Bioorg Med Chem Lett, 1998).

In one experiment the test system is MT4. Description: Compound was tested for the inhibition of HIV-1 in MT-4 human T-lymphoid cells infected with IIIB isolate. It is filed as functional. The following applies: read-out: ID50 (the source's name).
In experiment [1] the target is Human immunodeficiency virus type 1 protease (Human immunodeficiency virus 1, UniProt Q72874). Description: Inhibitory activity against HIV-1 protease.

For `CC(C)CN(C[C@@H](O)[C@H](Cc1ccccc1)NC(=O)O[C@H]1CO[C@H]2OCC[C@H]21)S(=O)(=O)c1ccc(N)cc1`, the IC50 in the experiment with MT4 came to 4.5 nM. `COc1ccc(S(=O)(=O)N(CC(C)C)C[C@@H](O)[C@H](Cc2ccccc2)NC(=O)O[C@@H]2CCS(=O)(=O)[C@@H]2C(C)C)cc1` showed a Ki in experiment [1] of 1.4 nM. Moreover, the IC50 in the experiment on MT4 stood at 18 nM.

In turn, `Cc1ccc(S(=O)(=O)N(CC(C)C)C[C@@H](O)[C@H](Cc2ccccc2)NC(=O)O[C@H]2CO[C@H]3OCC[C@H]32)cc1` came in with a Ki in experiment [1] of 1.2 nM. The IC50 in the experiment on MT4 is 3.5 nM. The like results for `COc1ccc(S(=O)(=O)N(CC(C)C)C[C@@H](O)[C@H](Cc2ccccc2)NC(=O)O[C@H]2CCSC2)cc1` were, in that order, 2.5 nM and 47 nM. Regarding `COc1ccc(S(=O)(=O)N(CC(C)C)C[C@@H](O)[C@H](Cc2ccccc2)NC(=O)O[C@H]2CO[C@H]3OCC[C@H]32)cc1`, the Ki in experiment [1] came out at 1.1 nM. The IC50 in the experiment with MT4 is 1.4 nM. The like results for `CC(C)CN(C[C@@H](O)[C@H](Cc1ccccc1)NC(=O)O[C@@H]1CCS(=O)(=O)[C@@H]1C(C)C)S(=O)(=O)c1ccc(N)cc1` were, in that order, 1.5 nM and 40 nM.

Consider `COc1ccc(S(=O)(=O)N(CC(C)C)C[C@@H](O)[C@H](Cc2ccccc2)NC(=O)O[C@H]2CCS(=O)(=O)C2)cc1`, for which, in experiment [1], the affinity, expressed as Ki, was 1.2 nM. Moreover, the IC50 in the experiment on MT4 worked out at 19 nM. In experiment [1], `COc1ccc(S(=O)(=O)N(CC(C)C)C[C@@H](O)[C@H](Cc2ccccc2)NC(=O)O[C@@H]2CO[C@@H]3OCCC[C@@H]32)cc1` registered a Ki of 2.2 nM. For the same compound, the IC50 with MT4 turned out to be 4.5 nM.

`COc1ccc(S(=O)(=O)N(CC(C)C)C[C@@H](O)[C@H](Cc2ccccc2)NC(=O)O[C@H]2CCOC2)cc1` had a Ki in experiment [1] of 1.5 nM. Also, the IC50 in the experiment on MT4 was 12 nM. `CC(C)CN(C[C@@H](O)[C@H](Cc1ccccc1)NC(=O)O[C@H]1CCOC1)S(=O)(=O)c1ccc(N)cc1` yielded a Ki in experiment [1] of 1.6 nM. Also, the IC50 in the experiment with MT4 was determined as 15 nM.

What is called Ki is the dissociation constant of the complex between target and ligand, obtained from inhibition or displacement. A high value points to lower affinity.
